# Laboratory results as given in patent US8012944B2, “Method for treating cancer using IAP antisense oligomer and chemotherapeutic agent” (Pharmascience Inc., priority 2003, dated 2011).
# Experiments:
# [1] = system: HIAP1 mRNA; assay: HIAP1 mRNA in SF295 cells, basal conditions (TaqMan); format: cell-based, human; set-up: decrease of HIAP1 mRNA compared to mock or scrambled survivin control: concentration or dose not given beside the values; conditions: for HIAP1 mRNA levels (in words): SF295 cells (FIG. 21); for decrease of HIAP1 mRNA compared to mock or scrambled survivin control: SF295 cells, six hours after transfection
# Method: RNA was extracted from cells lysed in RLT buffer (QIAGEN, Valencia, Calif.), and purified using QIAGEN RNeasy columns/kits. Real-time quantitative PCR was performed on a Perkin-Elmer ABI 7700 Prism PCR machine. RNA was reverse transcribed and amplified according to the TaqMan Universal PCR Master Mix protocol of PE Biosystems, using primers and probes designed to specifically recognize XIAP, HIAP1, survivin, or GAPDH. For human survivin, the forward primer was 5′-[…]-3′ (SEQ ID NO: 263), the reverse primer was 5′-GAAAGGAAAGCGCAACCG-3′ (SEQ ID NO: 264), and the probe was 5′-(FAM)[…](TAMRA)-3′ (SEQ ID NO: 265). For human HIAP1, the forward primer was 5′-[…]-3′ (SEQ ID NO: 266), the reverse primer was 5′-[…]-3′ (SEQ ID NO: 267), and the probe was 5′-(FAM)[…](TAMRA)-3′ (SEQ ID NO: 268). For human XIAP, the forward primer was 5′-[…]-3′ (SEQ ID NO: 269), the reverse primer was 5′-[…]-3′ (SEQ ID NO: 270), and the probe was 5′-(FAM)[…](TAMRA)-3′ (SEQ ID NO: 271). For human GAPDH, the forward primer was 5′-GAAGGTGAAGGTCGGAGTC-3′ (SEQ ID NO: 272), the reverse primer was 5′-GAAGATGGTGATGGGATTC-3′ (SEQ ID NO: 273), and the probe was 5′-(JOE)[…](TAMRA)-3′ (SEQ ID NO: 274). FAM is 6-carboxyfluoroscein, JOE is 6-carboxy-4,5-dichloro-2,7-dimethoxyfluoroscein, and TAMRA is 6-carboxy-N,N,N′,N′-tetramethylrhodamine. FAM and JOE are 5′ reporter dyes, while TAMRA is a 3′ quencher dye.
# Relative quantification of gene expression was performed as described in the PE Biosystems manual using GAPDH as an internal standard. The comparative Ct (cycle threshold) method was used for relative quantitation of IAP mRNA levels compared to GAPDH mRNA levels. Briefly, real-time fluorescence measurements were taken at each PCR cycle and the threshold cycle (Ct) value for each sample was calculated by determining the point at which fluorescence exceeded a threshold limit of 30 times the baseline standard deviation. The average baseline value and the baseline SD are calculated starting from the third cycle baseline value and stopping at the baseline value three cycles before the signal starts to exponentially rise. The PCR primers and/or probes for the specific IAPs were designed to span at least one exon-intron boundary separated by 1 kb or more of genomic DNA, to reduce the possibility of amplifying and detecting genomic DNA contamination. The specificity of the signal, and possible contamination from DNA, were verified by treating some RNA samples with either DNase or RNase, prior to performing the reverse transcription and PCR reaction steps.
# A library of 15 HIAP1 antisense nucleobase oligomers as oligonucleotides was screened for protein knock-down by western blot analysis and for RNA knock-down by TaqMan, using the primers and probes described in Example 3, above, under two different conditions. HIAP1 RNA levels may be detected using standard Northern blot analyses or RT-PCR techniques. The antisense oligonucleotides were administered to cells under basal conditions or under cycloheximide-induction conditions (24 hour treatment with sub-toxic doses). Cycloheximide (CHX) can lead to a 10- to 200-fold induction of HIAP1 mRNA depending on the cell line treated. […] This effect of CHX is via two distinct mechanisms of action. First, CHX activates NFkB, a known transcriptional inducer of HIAP1, by blocking the de novo synthesis of a labile protein, IkB, which is an inhibitor of NFkB. This effect is mimicked by puromycin, another protein synthesis inhibitor, and by TNF-alpha, which induces a signaling cascade leading to the phosphorylation, ubiquination, and degradation of IkB.
# SF295 glioblastoma cells were transfected with lipofectin and oligonucleotide (scrambled survivin, no oligonucleotide, antisense APO 1 to APO 15) or left untreated. […]
# [2] = system: HIAP1 protein; assay: HIAP1 protein in cycloheximide-induced SF295 cells (western blot); format: cell-based, human
# From the text: HIAP1 was detected on a western immunoblot using an affinity-purified anti-rat HIAP1 rabbit polyclonal antibody as a primary antibody and was detected by ECL (Amersham) on X-ray film with a secondary horseradish-peroxidase-conjugated anti-rabbit Ig antibody and a chemiluminescent substrate. The anti-HIAP1 polyclonal antibody is raised against a GST-fusion of the rat HIAP1. This antibody cross-reacts with both human and murine HIAP1 and HIAP2.
# (§1) The effect of HIAP1 antisense nucleobase oligomers on HIAP1 protein and mRNA expression was also examined in cells induced to express HIAP1. SF295 cells were transfected with oligonucleotides, or were mock transfected. The transfected cells were then treated with 10 μg/ml cycloheximide for 24 hours to induce 70 kDa HIAP1 mRNA and protein. Protein levels were measured by western blot analysis with an anti-HIAP1 polyclonal antibody, and normalized against actin protein in a re-probing of the same blots. The densitometric scan results were plotted against the mock results (set at 100%) in FIG. 22B. […] The transfection process itself (e.g., mock or scrambled survivin) induces HIAP1 protein compared to the untreated sample as shown on the western immunoblot.
# [3] = system: XIAP mRNA; assay: XIAP mRNA knock-down in H460 cells (real-time RT-PCR / TaqMan); format: cell-based, human
# Method in brief: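 NCI-H460 cells transfected with phosphorothioate antisense oligonucleotides via Lipofectamine 2000; RNA isolated after 6 h treatment. XIAP mRNA quantified by one-step TaqMan real-time RT-PCR, comparative Ct (threshold 30× baseline SD), normalized to GAPDH and expressed relative to untreated control cells.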
# [4] = system: XIAP protein; assay: XIAP protein knock-down in H460 cells (western blot, densitometry); format: cell-based, human
# Method: FIGS. 3 and 4 are graphs showing the effects of 4×4 mixed backbone (MBO) FG8 or E12 oligonucleotides in amounts of 31 nM (FIG. 3) or 63 nM (FIG. 4). H460 lung carcinoma cells were transfected for 18 hours on one, two, or three consecutive days using 125 nM MBOs and Lipofectamine 2000. Samples for western analysis were harvested at the indicated time. Scanning densitometry was performed, and XIAP protein levels were normalized to GAPDH and compared to a mock control set to 100%. The indicated percentages express % XIAP protein knockdown versus specific scrambled controls.
# One day prior to transfection, H460 cells were plated in 6- or 96-well tissue culture plates. Phosphorothioate antisense oligonucleotides were delivered into cells with Lipofectamine 2000 (Life Technologies) in the form of liposome-oligonucleotide complexes. Following a 4.5 or 6 h transfection, the transfection medium was replaced with RPMI medium containing 10% FBS, and the cells incubated for another 24 or 48 h.
# The cells or tumor tissue samples were lysed with ice-cold lysis buffer (50 mM Tris, 150 mM NaCl, 2.5 mM EDTA, 0.1% SDS, 0.5% sodium deoxycholate, 1% NP-40, 0.02% sodium azide) containing protease inhibitors (Complete-Mini protease inhibitor tablets; Boehringer Mannheim GmBH, Mannheim, Germany). After incubation for 30 min on ice, samples were centrifuged at 10,000 rpm for 15 min, and stored at −20° C. Protein content in the lysed extracts was determined using a detergent-compatible Bio-Rad assay (Bio-Rad Labs, Hercules, Calif.). Equal amounts of protein (40 μg/lane) were separated on 12% SDS-polyacrylamide gels or 4-15% gradient SDS-polyacrylamide pre-made gels (Bio-Rad) and transferred to nitrocellulose membranes. Primary antibodies against XIAP, Bcl-2 (DAKO, Glostrup, Denmark), Bax (Sigma, St. Louis, Mo.), β-actin (Sigma), caspase-3 (BD PharMingen, San Diego, Calif.), and PARP (BD PharMingen) were used. The secondary antibody was the appropriate horseradish-conjugated anti-mouse or anti-rabbit IgG (Promega, Madison, Wis.). Proteins were detected by enhanced chemiluminescence (ECL; Amersham Pharmacia Biotech, Buckinghamshire, England) and visualized after exposure to Kodak autoradiography film. Scanning densitometry (Molecular Dynamics, Sunnyvale, Calif.) was performed to quantify band intensities by volume/area integration. The amount of XIAP, caspase-3, Bcl-2 and Bax in cells was normalized to their respective lane β-actin levels, upon stripping and reprobing.
# [5] = system: HIAP1 mRNA; assay: HIAP1 mRNA in SF295 cells under cycloheximide induction (TaqMan); format: cell-based, human
# Method: as §1
# Controls for this experiment were three oligonucleotides for APO 2: one scrambled sequence (same base composition but random order, 5′-AAGGGCGGCGGAGTGAGAC-3′; SEQ ID NO: 297), one reverse polarity (same base composition, same sequential order but in the opposite direction, 5′-AGAGGACGGAGTCGGAGGC-3′; SEQ ID NO: 298), and one mismatch sequence (containing four base mismatches out of 19 bases, 5′-CGGAGCGTGAGGATGGAGA-3′; SEQ ID NO: 299).
# [6] = system: MDA-MB-435/LCC6 human breast carcinoma xenografts; assay: Systemic (i.p.) PS-oligonucleotides in LCC6 breast carcinoma xenografts; format: in vivo, female SCID-RAG2 mice; conditions: 12.5 mg/kg i.p.; day 35, two weeks after the last treatment
# Method: Initial systemic PS-oligonucleotide studies were designed without any chemotherapeutic agents. SCID-RAG2 mice were inoculated with H460 human lung carcinoma cells (s.c. shoulder injection of 10^6 cells) and treatments with G4 and F3 AS PS-oligonucleotides, as well as a scrambled control, were initiated three days after tumor inoculation. Nucleobase oligomer injections were administered i.p. at 12.5 mg/kg three times a week for three weeks. At the end of the treatment period, mean tumor sizes in the groups treated with either G4 or F3 AS oligonucleotides were ˜50% smaller than in the group treated with a scrambled control oligonucleotides (FIG. 15). The same treatment protocol was tested on female SCID-RAG2 mice inoculated orthotopically with MDA-MB-435/LCC6 human breast carcinoma cells. Two weeks after the last treatment (day 35) tumor volumes of mice treated with F3, C5 or G4 AS oligonucleotides were 70%, 60%, and 45%, respectively, smaller than vehicle controls (FIG. 16).
# Efficacy experiments were conducted in male RAG2 immunodeficient mice bearing NCI-H460 tumours or female RAG2 mice bearing LCC6 tumors. Treatments were commenced on day 3 after tumor inoculation. Saline (controls), G4 AS oligonucleotides (5 or 15 mg/kg), or G4 SC oligonucleotides (5 or 15 mg/kg) were administered i.p. daily for five doses a week over a three week regimen. Vinorelbine (VNB, 5 or 10 mg/kg) was administered i.v. via the tail vein, either alone or in combination with oligonucleotides, at day 3, 7, 11 and 17 after tumor inoculation. When oligonucleotides were administered in combination with VNB, the drug treatment was performed four hours after ODN treatment.
Substance,HIAP1 mRNA levels (in words) [1],decrease of HIAP1 mRNA compared to mock or scrambled survivin control [1] [%],activity in the HIAP1 protein and mRNA assays [2],effect on XIAP protein levels (in words) [4],further results
TCATTTGAGCCTGGGAGGT (chemistry not given here) [APO 1],did not cause a stress-induced increase in HIAP1 mRNA,~50,"high activity, or had significant activity in both the protein and mRNA assays",–,–
TGTCAGTACATGTTGGCTC (antisense; chemistry not fully specified) [Code E12],–,–,–,significantly reduced XIAP protein levels,XIAP down-regulation H460 RNA [3]: 74%
GGGCTCAAGTAATTCTCTT (chemistry not given here) [APO 15],did not cause a stress-induced increase in HIAP1 mRNA,~50,"high activity, or had significant activity in both the protein and mRNA assays",–,–
CCAGTGGTTTGCAAGCATG (chemistry not given here) [APO 7],did not cause a stress-induced increase in HIAP1 mRNA,~50,"high activity, or had significant activity in both the protein and mRNA assays",–,–
GAAATTTAGTGGCCAGGAA (chemistry not given here) [APO 8],did not cause a stress-induced increase in HIAP1 mRNA,~50,"high activity, or had significant activity in both the protein and mRNA assays",–,–
"5′-AAGGGCGGCGGAGTGAGAC-3′ (listed as DNA, chemistry not given here) [H1 sc apo 2, reference compound]",–,–,–,–,effect on HIAP1 mRNA (and protein) under CHX induction (in words) [5]: did not change HIAP1 mRNA levels at all
"mUmGmCmACCCTGGATACCmAmUmUmU (antisense NGCACCCNGGANACCANNN; 2'-O-methyl modifications, chemistry not fully specified) [FG8]",–,–,–,significantly reduced XIAP protein levels,–
ACCATTCTGGATACCAGAA (chemistry not fully specified) [C5 AS],–,–,–,did not show sequence specific effects,tumor volumes smaller than vehicle controls [6]: 60%
CAAGTACTCACACCTTGGA (chemistry not given here) [APO 12],did not cause a stress-induced increase in HIAP1 mRNA,~50,"high activity, or had significant activity in both the protein and mRNA assays",–,–
